The text below walks through data of PubChem BioAssay (NCI).

Each structure is given as a SMILES string.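 Cells were grown in 96-well plates and exposed to each compound for 48 hours at five concentrations; endpoints were interpolated linearly between bracketing concentrations, or set to the highest concentration if not reached. GI50: concentration for 50% inhibition of growth. TGI denotes the concentration required for complete inhibition of growth.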

The test system of one assay is 786-0 renal. The assay is described as follows: NCI anticancer screen, dose series, 48 h.
Compound `CCOC(=O)Cn1c(=O)c2nc(SC)sc2n(-c2ccccc2)c1=O` returned a TGI of over 100 µM.

For the compound `O=c1c2sc(=S)n(-c3ccc(F)cc3)c2ncn1/N=C/c1ccc(F)cc1F`, the TGI came to 34.1 µM.

Compound `COc1ccc2c(C)cc(=O)oc2c1OC` showed a TGI of over 100 µM.

`CC1CCC(C(=O)O)(C(Br)C(=O)O)CC1` (configuration not stated) gave a TGI of over 100 µM.

In turn, `CCCCCCOc1ccc(C(=O)NOC)cc1` gave a TGI of over 100 µM.

`NS(=O)(=O)c1cc(Cl)c(NC(=S)NC(=O)Nc2ccc(Cl)c(Cl)c2)c(Cl)c1` displayed a TGI of over 100 µM.

The compound `CCOP(=O)(OCC)C(c1ccc(F)cc1)N(C(=O)NC(F)(F)F)c1ccc(OC)cc1` (configuration not stated) displayed a TGI of over 100 µM.

`O=C(O)CCC(=O)OC1N=C(c2ccccc2Cl)c2cc([N+](=O)[O-])ccc2NC1=O` (configuration not stated): the TGI is over 100 µM.

As to `OCCc1ccsc1-c1sc(-c2cc(CCO)c(-c3sccc3CCO)s2)cc1CCO`, the TGI was determined as 29 µM.

Regarding `CCOC(=O)c1ccc(NCC#CCN2CCOCC2)cc1`, the TGI was over 100 µM.

`COc1ccc(-c2nc(SCC(=O)N/N=C/c3ccc(N(C)C)cc3)[nH]c2-c2ccc(OC)cc2)cc1` gave a TGI of over 100 µM.

Compound `CC(=N/N=C/c1ccccn1)/C(C)=N/N=C(C)/C(C)=N/N=C(C)/C(C)=N/N=C(C)/C(C)=N\N=C\c1ccccn1` showed a TGI of over 100 µM.

Turning to `CCN(CC)CCN(C(=Nc1ccccc1)N1CCOCC1)c1ccccc1`, the TGI was over 100 µM.

`COP(=O)(/C=C/c1cc(C(=O)OCc2ccccc2)n(S(=O)(=O)c2ccccc2)c1)OC` had a TGI of over 100 µM.

Compound `CCNC(=O)Cc1nc2c(N)ncnc2n1C1OC(CO)C(O)C1O` (configuration not stated) returned a TGI of over 100 µM.

Compound `Cc1cc(C(=O)CCCCOc2ccc(C3=NCCO3)cc2)c(C)n1C` yielded a TGI of over 100 µM.

`COc1cc(/C=C/C(=O)CC(=O)/C=C/c2ccc(OC(=O)CCCCC3CCSS3)c(OC)c2)ccc1OC(=O)CCCCC1CCSS1` (configuration not stated) showed a TGI of over 100 µM.

`[O-][n+]1ccccc1Sc1nc(Sc2cccc[n+]2[O-])nc(Sc2cccc[n+]2[O-])n1` showed a TGI of 2.53 µM.

Consider `CCCCC(C(=O)NCCNC(=O)CCC(=O)N(C)O)C(=O)NCCNC(=O)CCC(=O)N(C)O`, for which the TGI is over 100 µM.

`CC1(C)C2CCC1(C)[C@H](n1c(=O)n([C@@H]3CC4CCC3(C)C4(C)C)c(=O)n([C@@H]3CC4CCC3(C)C4(C)C)c1=O)C2` had a TGI of over 100 µM.

Turning to `CSc1nsc(-c2ccccc2)[s+]1`, the TGI was over 100 µM.

For another assay, the system named is MDA-MB-435. The assay is described as follows: NCI anticancer screen, dose series, 48 h.
Compound `O=c1c2sc(=S)n(-c3ccc(F)cc3)c2ncn1/N=C/c1ccc(F)cc1F` displayed a TGI of over 100 µM.

Compound `COc1ccc2c(C)cc(=O)oc2c1OC` gave a TGI of over 100 µM.

With `CC1CCC(C(=O)O)(C(Br)C(=O)O)CC1` (configuration not stated), the TGI is over 100 µM.

In the case of `Cc1cc(N(CCOS(C)(=O)=O)CCOS(C)(=O)=O)ccc1C=O`, the TGI is 28.8 µM.

Turning to `CCCCCCOc1ccc(C(=O)NOC)cc1`, the TGI is over 100 µM.

`NS(=O)(=O)c1cc(Cl)c(NC(=S)NC(=O)Nc2ccc(Cl)c(Cl)c2)c(Cl)c1` displayed a TGI of over 100 µM.

`CCOP(=O)(OCC)C(c1ccc(F)cc1)N(C(=O)NC(F)(F)F)c1ccc(OC)cc1` (configuration not stated) displayed a TGI of over 100 µM.

Consider `CCOC(=O)c1c(C)nc2c3ccccc3c(C#N)c(C)n12`, for which the TGI was over 100 µM.

`O=C(O)CCC(=O)OC1N=C(c2ccccc2Cl)c2cc([N+](=O)[O-])ccc2NC1=O` (configuration not stated) showed a TGI of over 100 µM.

Turning to `OCCc1ccsc1-c1sc(-c2cc(CCO)c(-c3sccc3CCO)s2)cc1CCO`, the TGI was 41.1 µM.

Consider `CCOC(=O)c1ccc(NCC#CCN2CCOCC2)cc1`, for which the TGI is over 100 µM.

Take `COc1ccc(-c2nc(SCC(=O)N/N=C/c3ccc(N(C)C)cc3)[nH]c2-c2ccc(OC)cc2)cc1`: the TGI is over 100 µM.

`CS(=O)(=O)OCC(CCl)(CCl)CCl`: the TGI was over 100 µM.

`CC(=N/N=C/c1ccccn1)/C(C)=N/N=C(C)/C(C)=N/N=C(C)/C(C)=N/N=C(C)/C(C)=N\N=C\c1ccccn1`: the TGI is over 100 µM.

The compound `COc1ccc(C2=N/C(=C\c3ccccc3)C(=O)O2)cc1` had a TGI of over 100 µM.

`CCN(CC)CCN(C(=Nc1ccccc1)N1CCOCC1)c1ccccc1` had a TGI of over 100 µM.

Turning to `COP(=O)(/C=C/c1cc(C(=O)OCc2ccccc2)n(S(=O)(=O)c2ccccc2)c1)OC`, the TGI was over 100 µM.

`CCNC(=O)Cc1nc2c(N)ncnc2n1C1OC(CO)C(O)C1O` (configuration not stated) returned a TGI of over 100 µM.

Take `Cc1cc(C(=O)CCCCOc2ccc(C3=NCCO3)cc2)c(C)n1C`: the TGI was 76.6 µM.

Take `COc1cc(/C=C/C(=O)CC(=O)/C=C/c2ccc(OC(=O)CCCCC3CCSS3)c(OC)c2)ccc1OC(=O)CCCCC1CCSS1` (configuration not stated): the TGI is over 100 µM.

With `[O-][n+]1ccccc1Sc1nc(Sc2cccc[n+]2[O-])nc(Sc2cccc[n+]2[O-])n1`, the TGI was determined as 4.15 µM.

The compound `CCCCC(C(=O)NCCNC(=O)CCC(=O)N(C)O)C(=O)NCCNC(=O)CCC(=O)N(C)O` came in with a TGI of over 100 µM.

In turn, `CC1(C)C2CCC1(C)[C@H](n1c(=O)n([C@@H]3CC4CCC3(C)C4(C)C)c(=O)n([C@@H]3CC4CCC3(C)C4(C)C)c1=O)C2` came in with a TGI of over 100 µM.

For a further assay, the system named is TK-10 renal. The assay is described as follows: NCI anticancer screen, dose series, 48 h.
`CCOC(=O)Cn1c(=O)c2nc(SC)sc2n(-c2ccccc2)c1=O`: the TGI was over 100 µM.

Take `O=c1c2sc(=S)n(-c3ccc(F)cc3)c2ncn1/N=C/c1ccc(F)cc1F`: the TGI was found to be 40 µM.

`COc1ccc2c(C)cc(=O)oc2c1OC` showed a TGI of over 100 µM.

`CC1CCC(C(=O)O)(C(Br)C(=O)O)CC1` (configuration not stated) came in with a TGI of over 100 µM.

For the compound `Cc1cc(N(CCOS(C)(=O)=O)CCOS(C)(=O)=O)ccc1C=O`, the TGI is over 100 µM.

In the case of `CCCCCCOc1ccc(C(=O)NOC)cc1`, the TGI was over 100 µM.

For `NS(=O)(=O)c1cc(Cl)c(NC(=S)NC(=O)Nc2ccc(Cl)c(Cl)c2)c(Cl)c1`, the TGI is over 100 µM.

For the compound `CCOP(=O)(OCC)C(c1ccc(F)cc1)N(C(=O)NC(F)(F)F)c1ccc(OC)cc1` (configuration not stated), the TGI is over 100 µM.

Turning to `CCOC(=O)c1c(C)nc2c3ccccc3c(C#N)c(C)n12`, the TGI is over 100 µM.

`O=C(O)CCC(=O)OC1N=C(c2ccccc2Cl)c2cc([N+](=O)[O-])ccc2NC1=O` (configuration not stated) yielded a TGI of over 100 µM.

With `CO[C@H]1/C=C(/C)CCC[C@H](C)[C@H](O)[C@@H](C)C(=O)C(C)(C)[C@@H](O)CC(=O)O[C@@H]1/C(C)=C/c1csc(C)n1`, the GI50 is 36.6 nM and the TGI was over 100 µM.

Regarding `OCCc1ccsc1-c1sc(-c2cc(CCO)c(-c3sccc3CCO)s2)cc1CCO`, the TGI worked out at 44 µM.

For the compound `COc1ccc(-c2nc(SCC(=O)N/N=C/c3ccc(N(C)C)cc3)[nH]c2-c2ccc(OC)cc2)cc1`, the TGI was over 100 µM.

Compound `CS(=O)(=O)OCC(CCl)(CCl)CCl` registered a TGI of over 100 µM.

`CC(=N/N=C/c1ccccn1)/C(C)=N/N=C(C)/C(C)=N/N=C(C)/C(C)=N/N=C(C)/C(C)=N\N=C\c1ccccn1`: the TGI was over 100 µM.

Compound `COc1ccc(C2=N/C(=C\c3ccccc3)C(=O)O2)cc1` displayed a TGI of over 100 µM.

`CCN(CC)CCN(C(=Nc1ccccc1)N1CCOCC1)c1ccccc1` had a TGI of over 100 µM.
